We go through 1 compound from patent EP0252983B1, “SALTS OF N-(VINYLOXIETHYL)DITHIOCARBAMIC ACID, METHOD OF OBTAINING THEREOF AND […] ON THEM” (priority 1985, dated 1987).

The assay relates to Psoroptes cuniculi. Briefly: Acaricidal activity on isolated mites. It counts as in vivo. As for the experimental part: Die akarizide Aktivität der Stoffe wird an isolierten Milben Psoroptes cuniculi als Erreger der Psoroptesräude bei Kaninchen geprüft. Von frischen Verkrustungen von Kaninchen mit Psoroptesräude, werden zu diesem Zweck 50 Milbenexemplare (Larven, Nymphen, Imago) gewählt und in Petri-Schalen auf ein Filterpapierblatt übertragen. Dann bringt man auf Milben und die ganze Blattoberfläche 1,5 ml zu prüfende wäßrige Stofflösung in destilliertem Wasser auf. Die Schale wird mit Deckel verschlossen und in einen Thermostat bei 30 °C und Feuchtegehalt von 90 % angeordnet. Der Wirkstoff wird als wäßrige Lösung mit einer zwischen 0,0039 und 4 % liegenden Konzentration genommen. Als Vergleichsmuster dient gleichzeitig eine wäßrige Lösung von Chlorophos. Milben werden im Kontrollversuch (Kontrolle auf Lebensfähigkeit)mit 1,5 ml physiologischer Lösung behandelt und in einen anderen Thermostat unter gleichen Temperatur- und Feuchtigkeitsbedingungen aufgestellt.
Nach 1, 2, 4, 6 Stunden und alle 24 Stunden betrachtet man die Milben im Mikroskop und zählt die toten Milben. Aufgrund der Milbenvernichtung durch einen 24-stündigen Kontakt mit dem Wirkstoff ermittelt man die LK-50 Werte. Die Versuche werden 5mal wiederholt. Arithmetische Mittelwerte gibt Tabelle 14 an.

`C=COCCNC(=S)S` [Kalium-N-(vinyloxyäthyl)dithiocarbamat]: the LK-50 % (24-stündiger Kontakt mit dem Wirkstoff) is 0,00208%. Besides, the “Vernichtung von 100 % der Milben nach Stunden” value stood at 48 Stunden (Konzentration 0,0039 %), 24 Stunden (Konzentration 0,0078 %), 6 Stunden (Konzentration 0,0625 %) and 4 Stunden (Konzentration 0,125 bis 0,5 %). For the same compound, the “selektive Toxizität gegen Räudemilben, dem Chlorophos überlegen” value (gegenüber Chlorophos) is given as approximately 400 mal.
